Results on five molecules are retold here after paper PMC8348200, “Selective Antifungal Activity and Fungal Biofilm Inhibition of Tryptophan Center Symmetrical Short Peptide” (International Journal of Molecular Sciences, 2021).

≈ marks a conversion by molar mass, not a printed value. Like-named read-outs stand apart in the source and are kept apart here. Residues, ends and D or L forms follow the SMILES beside them. No end group written: not given here. Bounds are passed on as bounds.

Data set [1] has as its system Fluconazole-resistant C. albicans 56214. The data set is described as follows: microbe, parasite or virus in culture. The note with it: fluconazole-resistant strain; RPMI 1640 buffered with MOPS, 28 °C 48 h, 0.5-128 μM. As for the experimental part: The peptide antimicrobial activity was determined according to the Clinical and Laboratory Standards Institute method, with modifications. […] Because the light has different refract in different liquids. The standard solution is composed of sulfuric acid and barium chloride, which is equivalent to 1*10^8 CFU fungi. After cultivation, the growth of fungi and bacteria was measured by TECAN automatic enzyme label instrument. Briefly, bacterial cells were cultured in MHB until logarithmic phase, yeast colonies cultured in Yeast Peptone Dextrose Agar (YPDA) were picked and diluted in RPMI 1640 growth medium buffered with morpholine propane sulfonic acid (MOPS), and then 50 μL of bacterial or fungi cell solution (0.5–1 × 10^4 CFU/mL) was added to each well of sterile 96-well plates. Each well contained 50 μL of AMPs dissolved in BSA; the final concentrations of the peptides ranged from 0.5 to 128 μM. […] Broth with microbial cells and un-inoculated broth were used as positive control and negative controls, respectively.

In data set [2] the test system is C. albicans SP3902. Briefly: microbe, parasite or virus in culture. It is filed as cell-based, Candida albicans. The following applies: clinical isolate; RPMI 1640 buffered with MOPS, 28 °C 48 h, 0.5-128 μM; read-out: MICs, C. albicans SP3902. How it is done:
(§1) The peptide antimicrobial activity was determined according to the Clinical and Laboratory Standards Institute method, with modifications. Bacteria concentration was measured by ultraviolet spectrophotometer, and fungi concentration was confirmed by McMillan’s turbidimetric method, which compared the fungi solution with the standard McFarland tube in front of the horizontal line on the paper with the naked eye. Because the light has different refract in different liquids. The standard solution is composed of sulfuric acid and barium chloride, which is equivalent to 1*10^8 CFU fungi. After cultivation, the growth of fungi and bacteria was measured by TECAN automatic enzyme label instrument. Briefly, bacterial cells were cultured in MHB until logarithmic phase, yeast colonies cultured in Yeast Peptone Dextrose Agar (YPDA) were picked and diluted in RPMI 1640 growth medium buffered with morpholine propane sulfonic acid (MOPS), and then 50 μL of bacterial or fungi cell solution (0.5–1 × 10^4 CFU/mL) was added to each well of sterile 96-well plates. Each well contained 50 μL of AMPs dissolved in BSA; the final concentrations of the peptides ranged from 0.5 to 128 μM. The lowest concentration of peptide with no microbial growth being observed were measured after incubation at 37 °C for 24 h for bacteria or at 28 °C for 48 h for fungi. Broth with microbial cells and un-inoculated broth were used as positive control and negative controls, respectively.

Data set [3] deals with C. albicans Isolated from Alveolar Fluid. The data set is described as follows: microbe, parasite or virus in culture. The data set is classed as cell-based, Candida albicans. The following applies: RPMI 1640 buffered with MOPS, 28 °C 48 h, 0.5-128 μM; read-out: MICs, C. albicans Isolated from Alveolar Fluid. How it is done:
as §1

The subject of data set [4] is C. albicans cgmcc 2.2086. The data set is described as follows: microbe, parasite or virus in culture. The data set is classed as cell-based, Candida albicans. The following applies: cgmcc 2.2086, 48 h; read-out: MICs, C. albicans cgmcc 2.2086. As for the experimental part: as §1
Data set [5] relates to C. albicans SP3903. Briefly: microbe, parasite or virus in culture. The data set is classed as cell-based, Candida albicans. The following applies: clinical isolate; RPMI 1640 buffered with MOPS, 28 °C 48 h, 0.5-128 μM; read-out: MICs, C. albicans SP3903. How it is done:
as §1

In data set [6] the test system is C. albicans SP3937. The data set is described as follows: microbe, parasite or virus in culture. The data set is classed as cell-based, Candida albicans. The note with it: clinical isolate; RPMI 1640 buffered with MOPS, 28 °C 48 h, 0.5-128 μM; read-out: MICs, C. albicans SP3937. How it is done: as §1
The subject of data set [7] is S. thermophilus YM-C. Briefly: microbe, parasite or virus in culture. The data set is classed as cell-based, Streptococcus thermophiles. The following applies: 24 h; read-out: MICs, S. thermophilus YM-C. As for the experimental part:
as §1

Data set [8] relates to E. coli UB1005. Briefly: microbe, parasite or virus in culture. The data set is classed as cell-based, Escherichia coli. The following applies: UB1005, 24 h; read-out: MICs, E. coli UB1005. As for the experimental part: as §1
Data set [9] concerns E. coli 25922. Briefly: microbe, parasite or virus in culture. It is filed as cell-based, Escherichia coli. The following applies: 25922, 24 h; read-out: MICs, E. coli 25922. As for the experimental part: as §1
Data set [10] deals with S. aureus 25923. Briefly: microbe, parasite or virus in culture. It is filed as cell-based, Staphylococcus aureus. The following applies: 25923, 24 h; read-out: MICs, S. aureus 25923. As for the experimental part:
as §1

Data set [11] deals with S. aureus 29213. Briefly: microbe, parasite or virus in culture. The note with it: 29213, 24 h; read-out: MICs, S. aureus 29213. The data set is classed as cell-based, Staphylococcus aureus. As for the experimental part: as §1
Data set [12] concerns C. parapsilosis cgmcc 2.3989. Briefly: microbe, parasite or virus in culture. It is filed as cell-based. The note with it: cgmcc 2.3989, 48 h; read-out: MICs, C. parapsilosis cgmcc 2.3989. As for the experimental part:
as §1

The subject of data set [13] is L. plantarum 7469. The data set is described as follows: microbe, parasite or virus in culture. It is filed as cell-based. The following applies: 24 h; read-out: MICs, L. plantarum 7469. How it is done: as §1
The test system of data set [14] is C. tropicalis cgmcc 2.1975. The data set is described as follows: microbe, parasite or virus in culture. It is filed as cell-based. The following applies: cgmcc 2.1975, 48 h; read-out: MICs, C. tropicalis cgmcc 2.1975. How it is done: as §1
For data set [15], the system named is L. rhamnosus 1.0911. The data set is described as follows: microbe, parasite or virus in culture. The note with it: 24 h; read-out: MICs, L. rhamnosus 1.0911. The data set is classed as cell-based, Lactobacillus rhamnosus. How it is done: as §1
Data set [16] concerns L. rhamnosus 1.0385. Briefly: microbe, parasite or virus in culture. The data set is classed as cell-based, Lactobacillus rhamnosus. The following applies: 24 h; read-out: MICs, L. rhamnosus 1.0385. As for the experimental part:
as §1

For data set [17], the system named is C.albicans cgmcc 2.2086. Briefly: microbe, parasite or virus in culture. The note with it: cgmcc 2.2086, 24 h. The data set is classed as cell-based, Candida albicans. As for the experimental part: as §1, with “The lowest concentration of peptide with no microbial growth being observed were measured after incubation at 37 °C for 24 h for bacteria or at 28 °C for 48 h for fungi.” left out
The salt and acid sensitivities of the peptides were measured using with modified method to test MIC values; tested peptides were incubated in the presence of different final concentrations of physiological salts. The subsequent steps were consistent with the MIC determination protocol.

Data set [18] concerns human red blood cells. The data set is described as follows: Hemolysis assay. It is filed as cell-based. The note with it: at the highest tested concentration; fresh human erythrocytes. How it is done: The cytotoxicity of the peptides was determined with three cell types, including the Pig kidney cells, HEK 293T cells and fresh, healthy human red blood cells (donated by Zhihua Wang) via the MTT dye reduction assay and hemolysis assay.

Regarding RRLALWLALRR-NH2 [Peptide P1], the “MICs, C. albicans 56214” value in [1] worked out at 16 µM. The MIC was determined as 32 µM in data set [2]; 8 µM in data set [3]; 8 µM in data set [4]; 16 µM in data set [5]; 16 µM in data set [6]; 128 µM in data set [7]. The MIC in [8] is on record as 2 µM; in data set [9] it was 4 µM; in [10] it was 8 µM; in [11], 8 µM; in data set [12] it was 8 µM; in [13], greater than 128 µM. Also, the MIC in data set [14] was found to be 2 µM; in data set [15], 64 µM; in data set [16] it was 8 µM.

Regarding RRFSFWFSFRR-NH2 [Peptide P19], in data set [1], the “MICs, C. albicans 56214” value came out at 4 µM. In addition, the MIC in data set [2] is given as 4 µM; in [3], 4 µM; in data set [4], 2 µM; in data set [5], 2 µM; in [6], 4 µM; in [7], greater than 128 µM. The MIC in [17] (read-out: MIC in acid environment, pH = 6) came to 4 µM; in [17] (read-out: MIC in the presence of FeCl3) it was 4 µM; in [17] (read-out: MIC in the presence of KCl), 4 µM; in data set [17] (read-out: MIC in the presence of MgCl2), 4 µM; in [17] (read-out: MIC in the presence of NH4Cl), 4 µM; in [17] (read-out: MIC in the presence of NaCl), 32 µM. Moreover, the MIC in [17] (read-out: MIC in the presence of ZnCl2) is 4 µM; in data set [17] (read-out: MIC, Control) it was 2 µM; in data set [8], 128 µM; in data set [9] it was 128 µM; in data set [10], greater than 128 µM; in data set [11] it was 128 µM. The MIC in [12] is 2 µM; in [13] it was greater than 128 µM; in data set [14], 2 µM; in data set [15], greater than 128 µM; in [16], greater than 128 µM. The hemolysis entry in data set [18] is “less than 5%”.

As for RRISIWISIRR-NH2 [Peptide P17], the “MICs, C. albicans 56214” value in data set [1] is listed as 4 µM. For the same molecule, the MIC is 4 µM in data set [2]; 8 µM in data set [3]; 4 µM in data set [4]; 2 µM in data set [5]; 4 µM in data set [6]; greater than 128 µM in [7]. The MIC was 16 µM in data set [8]; 128 µM in [9]; 128 µM in data set [10]; 128 µM in [11]; 1 µM in data set [12]; greater than 128 µM in [13]. The results for the MIC in [14], in data set [15] and in [16] were 1 µM, 32 µM and 8 µM, respectively.

As for RRLSLWLSLRR-NH2 [Peptide P2], in data set [1], the “MICs, C. albicans 56214” value worked out at 8 µM. The MIC in [2] is on record as 16 µM; in [3] it was 8 µM; in data set [4], 4 µM; in data set [5], 16 µM; in [6], 8 µM; in data set [7], greater than 128 µM. The MIC is listed as 2 µM in data set [8]; 4 µM in data set [9]; 16 µM in data set [10]; 4 µM in data set [11]; 8 µM in [12]; 128 µM in data set [13]. The MIC in data set [14] is 2 µM; in [15], 8 µM; in [16] it was 8 µM.

On to `CC(C)C[C@H](NC(=O)[C@H](CS)NC(=O)[C@H](CC(C)C)NC(=O)[C@H](Cc1c[nH]c2ccccc12)NC(=O)[C@H](CC(C)C)NC(=O)[C@H](CS)NC(=O)[C@H](CC(C)C)NC(=O)[C@H](CCCNC(=N)N)NC(=O)[C@@H](N)CCCNC(=N)N)C(=O)N[C@@H](CCCNC(=N)N)C(=O)N[C@@H](CCCNC(=N)N)C(N)=O` [Peptide P3] (H-RRLCLWLCLRR-NH2; N-terminus assumed), for which the “MICs, C. albicans 56214” value in data set [1] was found to be 16 µM. Further, the MIC is listed as 16 µM (≈ 23.8 µg/mL) in data set [2]; 16 µM (≈ 23.8 µg/mL) in [3]; 8 µM (≈ 11.9 µg/mL) in data set [4]; 16 µM (≈ 23.8 µg/mL) in data set [5]; 16 µM (≈ 23.8 µg/mL) in data set [6]; greater than 128 µM in [7]. Moreover, the MIC in data set [8] amounted to 2 µM (≈ 2.97 µg/mL); in data set [9], 4 µM (≈ 5.95 µg/mL); in data set [10] it was 8 µM (≈ 11.9 µg/mL); in data set [11], 8 µM (≈ 11.9 µg/mL); in data set [12], 16 µM (≈ 23.8 µg/mL); in [13] it was 128 µM (≈ 190 µg/mL). For the same molecule, the MIC in [14] was 4 µM (≈ 5.95 µg/mL); in [15] it was 128 µM (≈ 190 µg/mL); in data set [16], greater than 128 µM.
